The subject of one test is leucine-DH. In words: deamination of L-norleucine and L-leucine using leucine-DH, NADH formation at 340 nm. The class given is biochemical. The conditions noted are these: 10 mM substrate; 10 mM NAD+; pH 8.5; UV absorption at 340 nm. The protocol:
Deamination of L-norleucine and L-leucine (both commercial standards) was performed using a purified leucine-DH. Reactions contained 10 mM substrate, 10 mM NAD+ and 5 µl leucine-DH in a final volume of 1 ml Tris-HCl (pH 8.5, 0.1 M). Oxidation of the amino acids was successful as indicated by increasing UV absorption at 340 nm, corresponding to (concomitant) formation of NADH (Figure 3).

Test [1] deals with P450Cla. Briefly: conversion of fatty acid substrates 1a-d with P450Cla, oxidant H2O2. In kind it is biochemical. The conditions noted are these: for Conversion: 3 µM P450Cla, 24 h, RT, values marked a based on substrate depletion; for 2a-d: H2O2. The protocol: (§1) P450Cla was ordered as synthetic gene and cloned into the pET28a expression vector. […] The dialysis buffer was supplemented with 300 mM NaCl to prevent precipitation of P450Cla. Next, hydroxylation of fatty acid substrates 1a-d (scheme 2) was performed employing purified P450Cla and P450BSß. The oxidant source was varied in case of P450Cla while only H2O2 was used with P450BSß.
Reaction conditions for P450Cla: 3µM P450Cla; Tris-HCl (pH 7.5; 0.1 M); 2.5 to 5 % EtOH (cosolvent for the substrate).
(§2) All reactions were performed in closed glass vials for 24 h reaction time at RT with 170 rpm shaking. The reactions were quenched by addition of 100 µl 5 N HCl. Extractions were performed with 500 µl EtOAc containing 0.1 % 1-decanol as internal standard. After drying over Na2SO4, derivatization of acids to corresponding methyl esters was realized by mixing 150 µl of organic phase with 90µl of MeOH prior to supplementation of 20 µl of TMSCHN2 for esterification. Samples were analyzed by GC-FID and GC-MS. Commercial standards of 2-hydroxycaproic acid (2a), 2-hydroxyoctanoic acid (2b) and 2-oxooctanoic acid (4b) were used as references. Calibration curves were obtained from standards 1a-d and 2a-b prepared identically to the reaction mixtures (5 concentration points from 10 µM to 1 mM).

Another test relates to L- and D-HICDH. Briefly: oxidation of alpha-hydroxy acids with L- and D-HICDH, NADH formation at 340 nm. In kind it is biochemical. The conditions noted are these: for NADH concentration: after 1 min reaction time, estimated (Figure 2); for Oxidation of the α-hydroxy acid substrates: 1 or 10 mM substrate, 10 mM NAD+, pH 8.5, UV absorption at 340 nm. The method, then: A modified protocol for oxidation of 2-hydroxy acids with L-and D-HICDH was established allowing oxidation of 2-hydroxyhexanoic acid and 2-hydroxyoctanoic acid (both commercial standards) that are produced in step 1 of the cascade (Scheme 1). Reactions contained 1 or 10 mM substrate, 1 % DMSO, 10 mM NAD+ and 0.25 mg of L- and D-HICDH (cell free freeze-dried lysates) in a final volume of 1 ml Tris-HCl (pH 8.5, 0.1 M). Oxidation of the α-hydroxy acid substrates was successful as indicated by increasing UV absorption at 340 nm, corresponding to (concomitant) formation of NADH (Figure 2).

The next test has as its system D/L-HICDH. In words: oxidation/dehydrogenation of alpha-hydroxy acids 2a-b using D/L-HICDH. The class given is biochemical. The conditions noted are these: 10 mM substrate; KPi pH 7.5; 1 mM NAD+ (also 6.75 mM); RT, 24 h.
In a further test the test system is D/L-HICDH-YcnD. Briefly: oxidation/dehydrogenation of alpha-hydroxy acids 2a-b using D/L-HICDH with NADH-oxidase YcnD. In kind it is biochemical. The conditions noted are these: 10 mM substrate; with YcnD and catalase; KPi pH 7.5; 1 mM NAD+ (also 6.75 mM); RT, 24 h.
The next test concerns the target YcnD (Bacillus subtilis, UniProt P94424). Briefly: oxidation/dehydrogenation of alpha-hydroxy acids 2a-b, YcnD alone. The conditions noted are these: 10 mM substrate; YcnD without HICDH; KPi pH 7.5; RT, 24 h.
Another test addresses T1, CYPBSß (Bacillus subtilis, UniProt O31440).
T1 construct: made in house
Briefly: conversion of fatty acid substrates with CYPBSß, oxidant H2O2. The conditions noted are these: for 2a-d: H2O2; for Conversion: 3 µM P450BSß, KPi pH 7.0, 24 h, values marked a based on substrate depletion. In kind it is biochemical. The method, then:
as §1
Reaction conditions for P450BSß: 3µM P450BSß; KPi buffer (pH 7.0; 0.1 M); 5 % EtOH (cosolvent). […] All products were identified by GC-MS and/or comparison with authentic materials.
as §2

Test [2] relates to P450Cla. Briefly: alpha-hydroxylation of selected fatty acids, catalytic and kinetic characterization of P450Cla. The class given is biochemical. The conditions noted are these: for Product: 10 mM fatty acid, 0.5 µM P450Cla (C10), 1 µM (C8, C6), Tris-HCl pH 7.5, RT, triplicate; for specific activity U mg^-1: P450Cla 48 kDa, values only relevant at initial rate; for Coupling*: mol product per mol H2O2. The method, then: Hydroxylation of selected fatty acids was carried out using a fresh preparation of purified P450Cla. P450Cla was characterised for key catalytic parameters specific activities were determined for three selected substrates as shown in Table 1. Table 1: Catalytic and kinetic characterization of P450Cla for conversion of 10 mM of selected fatty acids. All reactions were performed in triplicate.
Conditions: 0.5 µM P450Cla used in reactions with C10; 1 µM P450Cla used in reactions with C8 and C6; All reactions were performed in Tris-HCl (pH 7.5, 0.1 M) at RT and 170 rpm shaking in closed glass vials; *molProduct^-1 molH2O2^-1; ^§molecular weight of P450Cla is 48 kDa, values only relevant at initial rate.

Test [3] relates to P450Cla, L- and D-HICDH, leucine-DH. In words: three-step one-pot cascade of fatty acid to amino acid (TLC ninhydrin, GC-MS). The class given is biochemical. The protocol:
Hydroxylation of all four fatty acid substrates (C4, C6, C8, C10) was performed as described above using 3 µM P450Cla, 10 mM substrate and 2.5 % EtOH in a final volume of 1 ml Tris-HCl (pH 7.5, 0.1 M). H2O2 was supplemented every 30 min (23 times; 36.8 mM total). After 24 h, the hydroxylation reaction (step 1) was stopped by adding 1200 U catalase (1 mg), 20µl of (NH4)2SO4(2.5 M stock) and the pH was adjusted to 8.5 using 1 M NaOH. For step 2 and 3 of the cascade, Land D-HICDH (0.25 mg), 10 mM NAD+ and 5 µl purified leucine-DH were added to the reaction mixture. After 24 h reaction time, 2 µl of the reaction volume were spotted on a TLC plate along with a commercial standard of L-norleucine as reference material (positive control). After elution of products acetic acid/H2O/n-butanol as mobile phase (1:1:3), the plate was stained with ninhydrin and heated gently for colour development. […] The following control reactions were performed to confirm the overall success of the two step cascade leaving one of the following components out of the reaction: 1) P450; 2) L- or D-HICDH; 3) Leu-DH; 4) fatty acid substrate; 5) H2O2; 6) (NH4)2SO4; 7) NAD+. The reaction samples were analyzed by TLC as shown before, but formation of norleucine could not be detected. […]

[4] abbreviates: 5 mM substrate, H2O2 9.6 mM total.
Where [5] appears, read: 10 mM substrate, H2O2 19.2 mM total.
The mark [6] stands for this setting: 5 mM substrate, H2O2 8 mM total.
Setting [7] is: 10 mM substrate, H2O2 16 mM total.

SMILES strings stand for the structures. Read-outs that look alike come from different tables or passages of the source. Marks after values point to notes of the source that are not given here.

T1 sequence (O31440 whole entry): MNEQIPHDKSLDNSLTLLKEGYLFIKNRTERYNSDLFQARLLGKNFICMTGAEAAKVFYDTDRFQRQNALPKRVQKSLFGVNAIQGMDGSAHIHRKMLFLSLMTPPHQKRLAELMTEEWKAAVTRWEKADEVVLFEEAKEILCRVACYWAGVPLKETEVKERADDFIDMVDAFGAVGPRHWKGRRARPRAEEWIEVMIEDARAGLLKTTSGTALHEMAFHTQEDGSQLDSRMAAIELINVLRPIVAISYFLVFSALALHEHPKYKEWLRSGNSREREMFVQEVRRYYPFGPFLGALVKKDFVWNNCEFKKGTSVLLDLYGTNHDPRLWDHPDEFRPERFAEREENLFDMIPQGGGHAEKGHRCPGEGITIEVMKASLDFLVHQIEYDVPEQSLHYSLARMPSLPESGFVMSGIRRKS
Sequence of YcnD (P94424 whole entry): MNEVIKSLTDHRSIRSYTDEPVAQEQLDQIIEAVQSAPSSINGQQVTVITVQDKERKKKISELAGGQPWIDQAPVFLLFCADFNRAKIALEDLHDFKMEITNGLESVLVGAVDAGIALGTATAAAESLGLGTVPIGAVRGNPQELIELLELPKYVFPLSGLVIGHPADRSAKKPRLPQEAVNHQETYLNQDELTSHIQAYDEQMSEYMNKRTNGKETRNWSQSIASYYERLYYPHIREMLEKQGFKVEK

Turning to `CC(C)C[C@H](N)C(=O)O` [L-leucine], the “Oxidation of the amino acids” value in the test with leucine-DH is “successful”.

Turning to `CCCCCCCC(=O)O` [Substrate 1b, octanoic acid], the figures for the Conversion with P450Cla [1] (setting [4]) and in the test with P450Cla [1] (setting [5]) were 96% and above 99%, respectively.

In the case of `CCCC[C@H](N)C(=O)O` [L-norleucine], the “Oxidation of the amino acids” value in the test with leucine-DH is reported as “successful”.

Turning to `CCCCC(O)C(=O)O` (stereo not shown) [Substrate 2a, 2-hydroxycaproic acid], the NADH concentration with L- and D-HICDH (1 mM substrate) is 45 µM; with L- and D-HICDH (10 mM substrate), 142 µM. Further, the “Oxidation of the α-hydroxy acid substrates” value in the test on L- and D-HICDH is reported as “successful”. Besides, the “α-Ketoacid 4a/b detected [Y/N]” value in the test with D/L-HICDH, in the test on D/L-HICDH-YcnD and on YcnD was “No” in each case.

For `CCCCCC(=O)O` [Substrate 1a, hexanoic acid], the 2a-d with P450Cla [1] (5 mM substrate) is given as 3.1 mM; in the test on P450Cla [1] (10 mM substrate, values marked c outside of calibration range), 5.1^c mM; on CYPBSß (5 mM substrate), 08 mM; on CYPBSß (10 mM substrate), 1.1 mM. Further, the Conversion with P450Cla [1] (setting [4]) is given as 62%; in the test with P450Cla [1] (setting [5]), 51%; on CYPBSß (setting [6]), 16%; at CYPBSß (setting [7]), 11%. Besides, the “α/β-Regioselectivity (2a-d vs 3a-d)” value on CYPBSß (5 mM substrate, share of 2a, 3a not detected) is 2a >95%^e; at CYPBSß (10 mM substrate, share of 2a, 3a not detected), 2a >95%^e.

As for `CCCCCCCC(=O)O` [Substrate C8, octanoic acid], the specific activity in the test on P450Cla [2] was at least 1 U mg^-1. In the test with P450Cla [2] (5 min, H2O2 0.8 mM), the Product stood at 0.49 ± 0.02 mM, the TON came to 98 min⁻¹, the TTN was 488 and the “specific activity U mg^-1” value came out at 2.0 U mg^-1. In addition, in the test on P450Cla [2] (5 min, H2O2 0.8 mM), the “Coupling*” value turned out to be 61%. In the test with P450Cla [2] (15 min, H2O2 0.8 mM), the Product is reported as 0.51 ± 0.01 mM, the TON was found to be 34 min⁻¹, the TTN is given as 506 and the “specific activity U mg^-1” value amounted to 07 U mg^-1. Besides, in the test with P450Cla [2] (15 min, H2O2 0.8 mM), the “Coupling*” value is reported as 63%. Moreover, in the test on P450Cla [2] (30 min, H2O2 1.6 mM), the Product came out at 0.94 ± 0.05 mM, the TON came out at 31 min⁻¹, the TTN is given as 938 and the “specific activity U mg^-1” value was determined as 0.7 U mg^-1. Besides, the “Coupling*” value in the test on P450Cla [2] (30 min, H2O2 1.6 mM) was found to be 59%.

As to `CCCCCC(=O)O` [Substrate C6, hexanoic acid], in the test on P450Cla [2], the “Selectivity [% α-OH]” value is recorded as above 90% and the specific activity was at least 1 U mg^-1. Besides, in the test with P450Cla [2] (5 min, H2O2 0.8 mM), the “Selectivity [% α-OH]” value is given as above 95%, the TON is 139 min⁻¹, the TTN was determined as 695 and the “specific activity U mg^-1” value stood at 2.9 U mg^-1. The “Coupling*” value with P450Cla [2] (5 min, H2O2 0.8 mM) is recorded as 87%. Also, in the test with P450Cla [2] (15 min, H2O2 0.8 mM), the “Selectivity [% α-OH]” value is above 95%, the TON was 47 min⁻¹, the TTN is listed as 706 and the “specific activity U mg^-1” value was determined as 1.0 U mg^-1. Moreover, the “Coupling*” value in the test on P450Cla [2] (15 min, H2O2 0.8 mM) is on record as 88%. Besides, in the test on P450Cla [2] (30 min, H2O2 1.6 mM), the “Selectivity [% α-OH]” value was above 95%, the TON amounted to 29 min⁻¹, the TTN came out at 880 and the “specific activity U mg^-1” value is listed as 0.6 U mg^-1. Besides, the “Coupling*” value in the test with P450Cla [2] (30 min, H2O2 1.6 mM) stood at 55%. The “production of norleucine (GC-MS after derivatization)” value in test [3] (10 mM hexanoic acid, Figure 4) was “successful production of norleucine”. Besides, the “formation of norleucine / amino acid (TLC, ninhydrin staining)” value in [3] (10 mM substrate, step 1 24 h, steps 2 and 3 24 h, one pot) is given as “distinct red spot”.

Turning to `CCCCCCCCCC(=O)O` [Substrate 1c, decanoic acid], the Conversion in the test with P450Cla [1] (setting [4]) is on record as >99^a %; with P450Cla [1] (setting [5]) it was >99^a %; on CYPBSß (setting [6]), 54^a %; at CYPBSß (setting [7]), 46^a %. For the same compound, the “α/β-Regioselectivity (2a-d vs 3a-d)” value is on record as 2c/3c 64/36 on CYPBSß (5 mM substrate, ratio α-hydroxy/β-hydroxy product) and 2c/3c 56/44 at CYPBSß (10 mM substrate, ratio α-hydroxy/β-hydroxy product).

Consider `CCCCCCC(O)C(=O)O` (stereo not shown) [Substrate 2b, 2-hydroxyoctanoic acid], for which the NADH concentration in the test with L- and D-HICDH (1 mM substrate) was 41 µM; in the test on L- and D-HICDH (10 mM substrate), 126 µM. In addition, the “Oxidation of the α-hydroxy acid substrates” value in the test with L- and D-HICDH is “successful”. Besides, the “α-Ketoacid 4a/b detected [Y/N]” value in the test on D/L-HICDH was “No”; in the test on D/L-HICDH-YcnD, “Yes (traces)”; at YcnD, “No”.

Values taken from patent publication EP3095872A1, “A METHOD OF PRODUCING ALPHA AMINO ACIDS” (Evonik Degussa GmbH, priority 2015, dated 2016).
